Measured values published in PubChem BioAssay (NCI).
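Step 1: Grow cells in 96-well plates. Step 2: Expose to compound for 48 hours at 5 concentrations. Step 3: Interpolate endpoints linearly; if unreached, use highest concentration. GI50 marks 50% less growth. TGI marks complete inhibition of growth.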

Experiments:
Assay in all cases: inhibition of tumour cell growth, NCI panel, 48 h
[1] = test system: 786-0 renal
[2] = test system: A498 renal
[3] = test system: A549 NSCLC
[4] = test system: ACHN renal
[5] = test system: CAKI-1 renal
[6] = test system: CCRF-CEM leukemia
[7] = test system: COLO 205 colon
[8] = test system: DLD-1 colon
[9] = test system: DMS 114 small cell lung
[10] = test system: DMS 273 small cell lung
[11] = test system: EKVX NSCLC
[12] = test system: HCC-2998 colon
[13] = test system: HCT-116 colon
[14] = test system: HCT-15 colon
[15] = test system: HL-60(TB) leukemia
[16] = test system: HOP-62 NSCLC
[17] = test system: HOP-92 NSCLC
[18] = test system: HT29 colon
[19] = test system: IGROV1 ovarian
[20] = test system: K-562 leukemia
[21] = test system: KM12 colon
[22] = test system: KM20L2 colon
[23] = test system: LOX IMVI melanoma
[24] = test system: LXFL 529 NSCLC
[25] = test system: M14 melanoma
[26] = test system: M19-MEL melanoma
[27] = test system: MALME-3M melanoma
[28] = test system: MOLT-4 leukemia
[29] = test system: NCI-H226 lung
[30] = test system: NCI-H23 lung
[31] = test system: NCI-H460 lung
[32] = test system: NCI-H522 lung
[33] = test system: OVCAR-3 ovarian
[34] = test system: OVCAR-4 ovarian
[35] = test system: OVCAR-5 ovarian
[36] = test system: OVCAR-8 ovarian
[37] = test system: RPMI-8226 leukemia
[38] = test system: RXF 393 renal
[39] = test system: RXF-631 renal
[40] = test system: SF-268 CNS
[41] = test system: SF-295 CNS
[42] = test system: SF-539 CNS
[43] = test system: SK-MEL-2 melanoma
[44] = test system: SK-MEL-28 melanoma
[45] = test system: SK-MEL-5 melanoma
[46] = test system: SK-OV-3 ovarian
[47] = test system: SN12C renal
[48] = test system: SNB-19 CNS
[49] = test system: SNB-75 CNS
[50] = test system: SNB-78 CNS
[51] = test system: SR leukemia
[52] = test system: SW-620 colon
[53] = test system: TK-10 renal
[54] = test system: U251 CNS
[55] = test system: UACC-257 melanoma
[56] = test system: UACC-62 melanoma
[57] = test system: UO-31 renal
[58] = test system: XF 498 CNS
[59] = test system: HOP-18 NSCLC

SMILES: CCC[CH2][Sn]1([CH2]CCC)[O]CC(CN2CCCCC2)[O]1 (centres undefined)
- GI50 [1]: 291 nM
- TGI [1]: 1010 nM
- GI50 [2]: 276 nM
- TGI [2]: 785 nM
- GI50 [3]: 1990 nM
- TGI [3]: 3810 nM
- GI50 [4]: 269 nM
- TGI [4]: 808 nM
- GI50 [5]: 51.2 nM
- TGI [5]: 333 nM
- GI50 [6]: 117 nM
- TGI [6]: 600 nM
- GI50 [7]: 273 nM
- TGI [7]: 883 nM
- GI50 [8]: 394 nM
- TGI [8]: 1850 nM
- GI50 [9]: 156 nM
- TGI [9]: 654 nM
- GI50 [10]: 271 nM
- TGI [10]: 1250 nM
- GI50 [11]: 284 nM
- TGI [11]: 1920 nM
- GI50 [12]: 486 nM
- TGI [12]: 1870 nM
- GI50 [13]: 892 nM
- TGI [13]: 2130 nM
- GI50 [14]: 460 nM
- TGI [14]: 1670 nM
- GI50 [15]: 68.3 nM
- TGI [15]: 337 nM
- GI50 [16]: 1610 nM
- TGI [16]: 3050 nM
- GI50 [17]: 193 nM
- TGI [17]: 885 nM
- GI50 [18]: 569 nM
- TGI [18]: 1880 nM
- GI50 [19]: 1120 nM
- TGI [19]: 2410 nM
- GI50 [20]: 109 nM
- TGI [20]: 744 nM
- GI50 [21]: 634 nM
- TGI [21]: 2100 nM
- GI50 [22]: 852 nM
- TGI [22]: 2210 nM
- GI50 [23]: 179 nM
- TGI [23]: 485 nM
- GI50 [24]: 76.2 nM
- TGI [24]: 263 nM
- GI50 [25]: 336 nM
- TGI [25]: 1330 nM
- GI50 [26]: 477 nM
- TGI [26]: 1730 nM
- GI50 [27]: 62.8 nM
- TGI [27]: 616 nM
- GI50 [28]: 158 nM
- TGI [28]: 646 nM
- GI50 [29]: 1630 nM
- TGI [29]: 3120 nM
- GI50 [30]: 137 nM
- TGI [30]: 343 nM
- GI50 [31]: 1100 nM
- TGI [31]: 2290 nM
- GI50 [32]: 48.7 nM
- TGI [32]: 176 nM
- GI50 [33]: 271 nM
- TGI [33]: 821 nM
- GI50 [34]: 226 nM
- TGI [34]: 1430 nM
- GI50 [35]: 1530 nM
- TGI [35]: 2860 nM
- GI50 [36]: 283 nM
- TGI [36]: 873 nM
- GI50 [37]: 136 nM
- TGI [37]: 484 nM
- GI50 [38]: 299 nM
- TGI [38]: 542 nM
- GI50 [39]: 124 nM
- TGI [39]: 248 nM
- GI50 [40]: 295 nM
- TGI [40]: 1340 nM
- GI50 [41]: 309 nM
- TGI [41]: 1320 nM
- GI50 [42]: 391 nM
- TGI [42]: 1500 nM
- GI50 [43]: 185 nM
- TGI [43]: 422 nM
- GI50 [44]: 685 nM
- TGI [44]: 1930 nM
- GI50 [45]: 582 nM
- TGI [45]: 1910 nM
- GI50 [46]: 1300 nM
- TGI [46]: 2810 nM
- GI50 [47]: 356 nM
- TGI [47]: 1430 nM
- GI50 [48]: 330 nM
- TGI [48]: 948 nM
- GI50 [49]: 197 nM
- TGI [49]: 731 nM
- GI50 [50]: 266 nM
- TGI [50]: 761 nM
- GI50 [51]: 199 nM
- TGI [51]: 619 nM
- GI50 [52]: 137 nM
- TGI [52]: 388 nM
- GI50 [53]: 242 nM
- TGI [53]: 897 nM
- GI50 [54]: 285 nM
- TGI [54]: 1110 nM
- GI50 [55]: 309 nM
- TGI [55]: 1050 nM
- GI50 [56]: 301 nM
- TGI [56]: 1300 nM
- GI50 [57]: 954 nM
- TGI [57]: 2140 nM
- GI50 [58]: 121 nM
- TGI [58]: 264 nM

SMILES: O=C(CC1(O)C(=O)Nc2c(Cl)cc(Cl)cc21)c1ccc(Br)cc1 (centres undefined)
- TGI [1]: 26400 nM
- TGI [2]: > 66000 nM
- TGI [3]: 44200 nM
- TGI [4]: 28800 nM
- TGI [5]: 33000 nM
- TGI [6]: > 55000 nM
- TGI [7]: > 56100 nM
- TGI [8]: 18900 nM
- TGI [9]: > 53800 nM
- TGI [10]: 28800 nM
- TGI [11]: 29100 nM
- TGI [12]: > 56100 nM
- TGI [13]: 34700 nM
- TGI [14]: > 56300 nM
- TGI [15]: 18600 nM
- TGI [59]: 30400 nM
- TGI [16]: 35700 nM
- TGI [17]: 29700 nM
- TGI [18]: > 57900 nM
- TGI [19]: 35300 nM
- TGI [20]: > 72800 nM
- TGI [21]: 30600 nM
- TGI [22]: 32900 nM
- TGI [23]: > 50200 nM
- TGI [24]: > 52400 nM
- TGI [25]: 31800 nM
- TGI [26]: > 20000 nM
- TGI [27]: > 56100 nM
- TGI [28]: > 63500 nM
- TGI [29]: 29500 nM
- TGI [30]: 29300 nM
- TGI [31]: > 56300 nM
- TGI [32]: 32400 nM
- TGI [33]: 29800 nM
- TGI [34]: 25600 nM
- TGI [35]: 31400 nM
- TGI [36]: > 52200 nM
- TGI [37]: 50600 nM
- TGI [38]: 31100 nM
- TGI [39]: 25400 nM
- TGI [40]: 34400 nM
- TGI [41]: > 55400 nM
- TGI [42]: 31200 nM
- TGI [43]: > 57800 nM
- TGI [44]: 35100 nM
- TGI [45]: 31300 nM
- TGI [46]: 64000 nM
- TGI [47]: > 50400 nM
- TGI [48]: 35500 nM
- TGI [49]: 39500 nM
- TGI [50]: 47000 nM
- TGI [51]: 62100 nM
- TGI [52]: > 53000 nM
- TGI [53]: 32100 nM
- TGI [54]: 26900 nM
- TGI [55]: > 51300 nM
- TGI [56]: 23200 nM
- TGI [57]: 17400 nM
